“And” between values parts separate entries of the source, which are not always exact repeats. Identical values can stand only once. Ends that are not written are not given here. A value given as a limit tells only on which side of the number the result lay.

Experiment [1] relates to S. mitis UCC5000. Put plainly: Broth MIC, Gram positive. The following applies: broth microtitre, BSA pre-treated plates, 10^5 cfu ml^−1, 2-fold dilutions from 10 µM, 16 h 37°C, purified peptide, mean of triplicate assays. The format is cell-based, Streptococcus mitis. As for the experimental part:
(§1) Minimum inhibitory concentration determinations for Gram positive organisms were carried out in triplicate in microtitre plates (Sarstedt). 96 well microtitre plates were pre-treated with bovine serum albumin (BSA) prior to addition of the peptides. Briefly, to each well of the microtitre plate 200 µL of phosphate buffered saline (PBS) containing 1% (w/v) bovine serum albumin (PBS/BSA) was added and incubated at 37°C for 30 min. The wells were washed with 200 µL PBS and allowed to dry. Target strains were grown overnight in the appropriate conditions and medium, subcultured into fresh broth and allowed to grow to an OD600 of ∼0.5, diluted to a final concentration of 10^5 cfu ml^−1 in a volume of 0.2 ml. Wild type nisin and nisin mutant peptides were adjusted to a 10 µM (S. mitis, B. cereus), 7.5 µM (L. monocytogenes), 5 µM (hVISA) 2.5 µM (MRSA, E. durans), or 500 nM (L. lactis strains) starting concentration and 2-fold serial dilutions of each peptide were added to the target strain.

Experiment [2] deals with E. durans 5133. As to the kind of experiment: Broth MIC, Gram positive. The following applies: broth microtitre, BSA pre-treated plates, 10^5 cfu ml^−1, 2-fold dilutions from 2.5 µM, 16 h 37°C, purified peptide, mean of triplicate assays. The class given is cell-based, Enterococcus durans. As for the experimental part:
as §1

For experiment [3], the system named is Salmonella enterica serovar Typhimurium UK1. As to the kind of experiment: Agarose gel diffusion assay, purified peptide. The following applies: purified peptide 60 µM; for Zone of inhibition, agarose gel diffusion: Salmonella Typhimurium UK1, mean of triplicate assays; for Zone as % wt: Salmonella Typhimurium UK1, relative to nisin A. The class given is cell-based. As for the experimental part:
(§2) Agarose-based deferred antagonism assays were carried out as follows: GM17/LB (0.03%) underlay was prepared with 10 mM sodium phosphate buffer (SPB) at pH 7.4 to which was added agarose (1% w/v agarose), autoclaved and cooled to 50°C. Bacteria grown to mid-logarithmic phase were harvested by centrifugation and washed with 10 mM SPB at pH 7.4. Bacteria were then added to 15 mls cooled underlay medium to reach a concentration of 2×10^7 colony-forming units (CFU)/mL. The inoculated medium was rapidly transferred into sterile Petri plates, allowed to solidify and dried. Wells (4.6 mm in diameter) were then made in the seeded plates. 10 µl volumes of cell-free supernatant from overnight nisin derivative producing cultures or resuspended purified peptides were then added to the wells and the plates incubated at 30°C (L. lactis) or 37°C (Gram positive strains) or RT (Gram negative strains) for 3 hours. Polymyxin B (Sigma Aldrich) was used at a concentration of 20 µg/ml. The plates were then overlaid with 15 mls of autoclaved double strength GM17 (L. lactis) or LB (Gram negatives) agarose (1% w/v agarose) overlay medium precooled to 50°C. The plates were then incubated overnight at the relevant temperature.

The subject of experiment [4] is E. coli 0157-H7. Put plainly: Agarose gel diffusion assay, purified peptide. The conditions noted are these: purified peptide 60 µM; for Zone of inhibition, agarose gel diffusion: E. coli 0157-H7, mean of triplicate assays; for Zone as % wt: E. coli 0157-H7, relative to nisin A. The format is cell-based. The protocol: as §2
The subject of experiment [5] is B. cereus DPC 6088. Put plainly: Broth MIC, Gram positive. The format is cell-based, Bacillus cereus. The conditions noted are these: broth microtitre, BSA pre-treated plates, 10^5 cfu ml^−1, 2-fold dilutions from 10 µM, 16 h 37°C, purified peptide, mean of triplicate assays. The protocol: as §1
The subject of experiment [6] is B. cereus DPC 6089. Put plainly: Broth MIC, Gram positive. The class given is cell-based, Bacillus cereus. The conditions noted are these: broth microtitre, BSA pre-treated plates, 10^5 cfu ml^−1, 2-fold dilutions from 10 µM, 16 h 37°C, purified peptide, mean of triplicate assays. The protocol: as §1
Experiment [7] concerns L. lactis HP. As to the kind of experiment: Broth MIC, Gram positive. The format is cell-based. The conditions noted are these: broth microtitre, BSA pre-treated plates, 10^5 cfu ml^−1, 2-fold dilutions from 500 nM, 16 h, purified peptide, mean of triplicate assays. As for the experimental part:
as §1

The test system of experiment [8] is S. aureus RF122. Put plainly: Broth MIC, Gram positive. The format is cell-based. The following applies: broth microtitre, BSA pre-treated plates, 10^5 cfu ml^−1, 2-fold dilutions, 16 h 37°C, purified peptide, mean of triplicate assays. The protocol:
as §1

The subject of experiment [9] is C. sakazakii DPC 6440. Put plainly: Agarose gel diffusion assay, purified peptide. The following applies: purified peptide 60 µM; for Zone of inhibition, agarose gel diffusion: C. sakazakii DPC 6440, mean of triplicate assays; for Zone as % wt: C. sakazakii DPC 6440, relative to nisin A. The format is cell-based, Cronobacter sakazakii. As for the experimental part: as §2

The subject of experiment [10] is Salmonella enterica serovar Typhimurium UK1. Put plainly: Broth MIC, Gram negative. The format is cell-based. The following applies: cells washed in 10 mM SPB pH 7.4, 2×10^5 CFU/mL, 2 h RT with peptide, then double strength LB, RT overnight, mean of triplicate assays. The protocol:
(§3) Minimum inhibitory concentration determinations for Gram negative strains were carried out in triplicate in 96 well microtitre plates. Briefly, bacteria (E. coli, C. sakazakii and Salmonella) grown to mid-logarithmic phase were harvested by centrifugation, washed with 10 mM SPB at pH 7.4, and diluted to 2×10^5 colony-forming units (CFU)/mL in SPB. Nisin and nisin derivative peptides were resuspended in sterile HPLC water and 50 µL aliquots were added to wells containing 50 µL of 2×10^5 CFU of bacteria. Plates were incubated at RT for two hours with agitation. Double strength Luria–Bertani (LB) broth (100 µL) was added and the plates were incubated at RT overnight, the MIC was taken as the lowest concentration at which growth was inhibited.

The test system of experiment [11] is E. coli 0157-H7. Put plainly: Broth MIC, Gram negative. The format is cell-based. The conditions noted are these: cells washed in 10 mM SPB pH 7.4, 2×10^5 CFU/mL, 2 h RT with peptide, then double strength LB, RT overnight, mean of triplicate assays. The protocol: as §3
The test system of experiment [12] is C. sakazakii DPC 6440. As to the kind of experiment: Broth MIC, Gram negative. The class given is cell-based, Cronobacter sakazakii. The conditions noted are these: cells washed in 10 mM SPB pH 7.4, 2×10^5 CFU/mL, 2 h RT with peptide, then double strength LB, RT overnight, mean of triplicate assays. The protocol: as §3
In experiment [13] the test system is hVISA 32679 (heterogenous Vancomycin-intermediate S. aureus). As to the kind of experiment: Broth MIC, Gram positive. The format is cell-based. The conditions noted are these: broth microtitre, BSA pre-treated plates, 10^5 cfu ml^−1, 2-fold dilutions from 5 µM, 16 h 37°C, purified peptide, mean of triplicate assays. As for the experimental part:
as §1

The subject of experiment [14] is L. monocytogenes LO28. As to the kind of experiment: Broth MIC, Gram positive. The class given is cell-based. The following applies: broth microtitre, BSA pre-treated plates, 10^5 cfu ml^−1, 2-fold dilutions from 7.5 µM, 16 h 37°C, purified peptide, mean of triplicate assays. The protocol:
as §1

For experiment [15], the system named is L. monocytogenes 10403S. Put plainly: Broth MIC, Gram positive. The conditions noted are these: broth microtitre, BSA pre-treated plates, 10^5 cfu ml^−1, 2-fold dilutions from 7.5 µM, 16 h 37°C, purified peptide, mean of triplicate assays. The format is cell-based. The protocol:
as §1

In experiment [16] the test system is ST 528 (Methicillin resistant S. aureus). As to the kind of experiment: Broth MIC, Gram positive. The format is cell-based. The following applies: broth microtitre, BSA pre-treated plates, 10^5 cfu ml^−1, 2-fold dilutions from 2.5 µM, 16 h 37°C, purified peptide, mean of triplicate assays. As for the experimental part: as §1
Experiment [17] has as its system L. lactis MG1363. As to the kind of experiment: Broth MIC, Gram positive. The following applies: broth microtitre, BSA pre-treated plates, 10^5 cfu ml^−1, 2-fold dilutions from 500 nM, 16 h, purified peptide, mean of triplicate assays. The class given is cell-based. The protocol:
as §1

The test system of experiment [18] is ST 530 (Methicillin resistant S. aureus). Put plainly: Broth MIC, Gram positive. The class given is cell-based. The following applies: broth microtitre, BSA pre-treated plates, 10^5 cfu ml^−1, 2-fold dilutions from 2.5 µM, 16 h 37°C, purified peptide, mean of triplicate assays. As for the experimental part: as §1
Experiment [19] deals with Lactococcus lactis HP. As to the kind of experiment: Agarose-based assay of cell-free supernatants of S29X producing strains. The conditions noted are these: for Zone Diameter (mm): agarose (1%) GM17 assay, 10 µl cell-free supernatant of overnight producing culture in 4.6 mm wells, L. lactis HP, 30°C; for % difference (zone relative to wild type): agarose assay of supernatants against L. lactis HP, wild type serine = 100. The protocol: as §2

For orientation: MIC means the lowest concentration that inhibits growth of the organism. For “M21K: M21K hinge derivative of nisin A, generated and purified for comparison (ITSISLCTPGCKTGALMGCNKKTATCHCSIHVSK; thioether (positions not given here); not fully specified (residues 2, 5, 33, bridges); UniProt P13068 24-57, looked up, variant M21K)”, the MIC in experiment [1] is 8.38 mg/L and 2.5 µM; in experiment [2], 0.52 mg/L and 0.156 µM; in experiment [5], 16.76 mg/L and 5.0 µM; in experiment [6], 16.76 mg/L and 5.0 µM; in [7], 0.2 mg/L and 0.062 µM; in [8] it was 1.04 mg/L and 0.312 µM. Further, the MIC in [10] was 50.28 mg/L and 15 µM; in experiment [11] it was 25.14 mg/L and 7.5 µM; in experiment [12], 6.28 mg/L and 1.875 µM. Further, the “Zone of inhibition, agarose gel diffusion” value (“Zone of inhibition” below) in [3] is listed as 10.75±0.12 mm; in [4] it was 10.80±0.01 mm; in experiment [9], 10.51±0.10 mm. Besides, the entries for the “Zone as % wt” value in experiment [3], in experiment [4] and in [9] were 109 % wt, 110 % wt and 108 % wt, respectively.
Take “S29D: bioengineered nisin A derivative, serine 29 replaced by aspartic acid (ITSISLCTPGCKTGALMGCNMKTATCHCDIHVSK; thioether (positions not given here); not fully specified (residues 2, 5, 33, bridges); UniProt P13068 24-57, looked up, variant S29D)”: the MIC in experiment [1] was 16.76 mg/L and 5.0 µM; in experiment [2] it was 0.52 mg/L and 0.156 µM; in experiment [5] it was 16.76 mg/L and 5.0 µM; in experiment [6], 8.38 mg/L and 2.5 µM; in experiment [13], 4.19 mg/L and 1.25 µM; in [14], 12.57 mg/L and 3.75 µM. For the same substance, the MIC in experiment [15] is 12.57 mg/L and 3.75 µM; in [16], 0.26 mg/L and 0.078 µM; in [17] it was 0.4 mg/L and 0.125 µM; in [7], 0.05 mg/L and 0.015 µM; in experiment [18], 0.52 mg/L and 0.156 µM; in [8], 4.19 mg/L and 1.25 µM. The minimal inhibitory concentration (MIC) in experiment [10] is > 100 mg/L and > 30 µM; in experiment [11], > 100 mg/L and > 30 µM; in experiment [12], 6.28 mg/L and 1.875 µM. Moreover, the “Zone of inhibition” value is 8.22±0.16 mm in [3], 8.27±0.08 mm in experiment [4] and 10.10±0.19 mm in experiment [9]. Also, the “Zone as % wt” value in [3] was found to be 83 % wt; in [4] it was 84 % wt; in [9], 103 % wt. In addition, in experiment [19], the “Zone Diameter (mm)” value came to 20.3±0.8 mm. Also, the “% difference (zone relative to wild type)” value in [19] is given as 133 (0.006) %.
“S29E: bioengineered nisin A derivative, serine 29 replaced by glutamic acid (ITSISLCTPGCKTGALMGCNMKTATCHCEIHVSK; not fully specified (residues 2, 5, 33, bridges); cysteine pairing not given here; UniProt P13068 24-57, looked up, variant S29E)”: the minimal inhibitory concentration (MIC) in [1] is 4.19 mg/L; in [2], 0.52 mg/L and 0.156 µM; in [5], 4.19 mg/L and 1.25 µM; in [6] it was 4.19 mg/L and 1.25 µM; in experiment [13], 4.19 mg/L and 1.25 µM; in experiment [14], 6.28 mg/L and 1.875 µM. For the same substance, the MIC in experiment [15] is 12.57 mg/L and 3.75 µM; in [16] it was 0.52 mg/L; in experiment [17] it was 0.8 mg/L and 0.250 µM; in experiment [7] it was 0.05 mg/L and 0.015 µM; in [18] it was 0.52 mg/L; in [8], 2 mg/L and 0.625 µM. In addition, the MIC in [10] was 50.28 mg/L and 15 µM; in experiment [11], 25.14 mg/L and 7.5 µM; in [12], 12.57 mg/L and 3.75 µM. Besides, the “Zone of inhibition” value was 10.77±0.07 mm in [3], 10.54±0.19 mm in experiment [4] and 7.98±0.29 mm in [9]. Also, the “Zone as % wt” value in [3] came to 109 % wt; in experiment [4] it was 107 % wt; in [9], 81 % wt. Besides, the “Zone Diameter (mm)” value in [19] worked out at 18.6±0.3 mm. Also, the “% difference (zone relative to wild type)” value in [19] is 122 (0.0004) %.

The values are drawn from PMC3466204 (PLoS ONE, 2012).
